Experimental data: PubChem BioAssay AID256 (DTP/NCI, 2004)
“And” between values parts separate entries of the source, which are not always exact repeats. Equal values may be shown once. Toxic doses and inconclusive results are not listed. How the source made its calls: active means survival T/C of 150% or more; inactive means T/C below 125% in these data.

Test system: CD2F1 mice, L1210 leukemia ip, survival T/C
Test: NCI In Vivo Anticancer Drug Screen. Data for tumor model L1210 Leukemia (intraperitoneal) in CD2F1 (CDF1) mice
Conditions: higher = longer survival
Procedure, shortened: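 Vehicle-treated tumor-bearing mice served as controls (C) for compound-treated mice (T). Reported figure is T divided by C.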

[1] = endpoint: mean survival time, dose: 100.0 mg/kg/injection, schedule: Q01DX009 (ip), vehicle: saline with Tween-80
[2] = endpoint: mean survival time, dose: 100.0 mg/kg/injection, schedule: Q04DX003 (ip), vehicle: saline
[3] = endpoint: mean survival time, dose: 200.0 mg/kg/injection, schedule: Q01DX009 (ip), vehicle: saline with Tween-80
[4] = endpoint: mean survival time, dose: 200.0 mg/kg/injection, schedule: Q04DX003 (ip), vehicle: saline
[5] = endpoint: mean survival time, dose: 400.0 mg/kg/injection, schedule: Q01DX009 (ip), vehicle: saline with Tween-80
[6] = endpoint: mean survival time, dose: 400.0 mg/kg/injection, schedule: Q04DX003 (ip), vehicle: saline
[7] = endpoint: mean survival time, dose: 100.0 mg/kg/injection, schedule: Q04DX003 (ip), vehicle: saline with Tween-80
[8] = endpoint: mean survival time, dose: 200.0 mg/kg/injection, schedule: Q04DX003 (ip), vehicle: saline with Tween-80
[9] = endpoint: mean survival time, dose: 400.0 mg/kg/injection, schedule: Q04DX003 (ip), vehicle: saline with Tween-80
[10] = endpoint: mean survival time, dose: 100.0 mg/kg/injection, schedule: Q01DX009 (ip), vehicle: saline
[11] = endpoint: mean survival time, dose: 200.0 mg/kg/injection, schedule: Q01DX009 (ip), vehicle: saline
[12] = endpoint: mean survival time, dose: 400.0 mg/kg/injection, schedule: Q01DX009 (ip), vehicle: saline
[13] = endpoint: mean survival time, dose: 100.0 mg/kg/injection, schedule: Q04DX003 (ip), vehicle: saline sonified
[14] = endpoint: mean survival time, dose: 200.0 mg/kg/injection, schedule: Q04DX003 (ip), vehicle: saline sonified
[15] = endpoint: mean survival time, dose: 400.0 mg/kg/injection, schedule: Q04DX003 (ip), vehicle: saline sonified
[16] = endpoint: mean survival time, dose: 100.0 mg/kg/injection, schedule: Q01DX001 (ip), vehicle: saline
[17] = endpoint: mean survival time, dose: 200.0 mg/kg/injection, schedule: Q01DX001 (ip), vehicle: saline
[18] = endpoint: mean survival time, dose: 25.0 mg/kg/injection, schedule: Q01DX001 (ip), vehicle: saline with Tween-80
[19] = endpoint: mean survival time, dose: 50.0 mg/kg/injection, schedule: Q01DX001 (ip), vehicle: saline with Tween-80
[20] = endpoint: mean survival time, dose: 100.0 mg/kg/injection, schedule: Q01DX001 (ip), vehicle: saline with Tween-80

Measured: T/C

CC(=O)CCC(C)=O
inactive: [1] 100 % of control | [2] 97 % of control | [3] 109 % of control | [4] 100 % of control | [5] 100 % of control | [6] 94 % of control

c1ccc(C2CC([P+](c3ccccc3)(c3ccccc3)c3ccccc3)=NN2CC[P+](c2ccccc2)(c2ccccc2)c2ccccc2)cc1 (stereo not drawn)
inactive: endpoint: mean survival time, dose: 1.56 mg/kg/injection, schedule: Q04DX003 (ip), vehicle: saline with Tween-80 101 % of control | endpoint: mean survival time, dose: 3.13 mg/kg/injection, schedule: Q04DX003 (ip), vehicle: saline with Tween-80 96 % of control | endpoint: mean survival time, dose: 6.25 mg/kg/injection, schedule: Q04DX003 (ip), vehicle: saline with Tween-80 93 % of control

COc1ccc(/C=N/N=C(/N)N[N+](=O)[O-])cc1
inactive: endpoint: mean survival time, dose: 100.0 mg/kg/injection, schedule: Q01DX001 (ip), vehicle: Klucel (hydroxypropylcellulose) (HPC) 94 % of control | endpoint: mean survival time, dose: 200.0 mg/kg/injection, schedule: Q01DX001 (ip), vehicle: Klucel (hydroxypropylcellulose) (HPC) 97 % of control | endpoint: mean survival time, dose: 400.0 mg/kg/injection, schedule: Q01DX001 (ip), vehicle: Klucel (hydroxypropylcellulose) (HPC) 94 % of control

O=C1C=CC(=O)C2CC=CCC12 (stereo not drawn)
inactive: endpoint: mean survival time, dose: 10.0 mg/kg/injection, schedule: Q01DX009 (ip), vehicle: saline with Tween-80 103 % of control | endpoint: mean survival time, dose: 12.5 mg/kg/injection, schedule: Q04DX003 (ip), vehicle: saline with Tween-80 101 % of control | endpoint: mean survival time, dose: 20.0 mg/kg/injection, schedule: Q01DX009 (ip), vehicle: saline with Tween-80 107 % of control | endpoint: mean survival time, dose: 25.0 mg/kg/injection, schedule: Q04DX003 (ip), vehicle: saline with Tween-80 104 % of control | endpoint: mean survival time, dose: 40.0 mg/kg/injection, schedule: Q01DX009 (ip), vehicle: saline with Tween-80 98 % of control | endpoint: mean survival time, dose: 50.0 mg/kg/injection, schedule: Q04DX003 (ip), vehicle: saline with Tween-80 98 % of control | [7] 100 % of control | [8] 93 % of control | [9] 100 % of control

O=C(CCNC(=O)OCc1ccccc1)NC(CSCc1ccccc1)C(=O)O (stereo not drawn)
inactive: endpoint: mean survival time, dose: 25.0 mg/kg/injection, schedule: Q01DX005 (ip), vehicle: water 101 % of control | endpoint: mean survival time, dose: 50.0 mg/kg/injection, schedule: Q01DX005 (ip), vehicle: water 106 % of control | endpoint: mean survival time, dose: 100.0 mg/kg/injection, schedule: Q01DX005 (ip), vehicle: water 101 % of control | endpoint: mean survival time, dose: 200.0 mg/kg/injection, schedule: Q01DX005 (ip), vehicle: water 108 % of control

CCNCCNc1ccc(NCCNCC)c2c1C(=O)c1ccccc1C2=O
inactive: endpoint: mean survival time, dose: 2.0 mg/kg/injection, schedule: Q01DX009 (ip), vehicle: acid diluted with saline 122 % of control | endpoint: mean survival time, dose: 4.0 mg/kg/injection, schedule: Q01DX009 (ip), vehicle: acid diluted with saline 122 % of control and 123 % of control

CCN(CC)Cc1cccc(Nc2cc(C)nc(/N=C(\N)Nc3ccc(Cl)c(Cl)c3)n2)c1
inactive: endpoint: mean survival time, dose: 9.5 mg/kg/injection, schedule: Q01DX001 (ip), vehicle: other 102 % of control | endpoint: mean survival time, dose: 19.0 mg/kg/injection, schedule: Q01DX001 (ip), vehicle: other 96 % of control | endpoint: mean survival time, dose: 38.0 mg/kg/injection, schedule: Q01DX001 (ip), vehicle: other 95 % of control

COC1=CCC2=C(CCO2)C1
inactive: endpoint: mean survival time, dose: 100.0 mg/kg/injection, schedule: Q01DX009 (ip), vehicle: acetone 91 % of control | endpoint: mean survival time, dose: 200.0 mg/kg/injection, schedule: Q01DX009 (ip), vehicle: acetone 98 % of control | endpoint: mean survival time, dose: 400.0 mg/kg/injection, schedule: Q01DX009 (ip), vehicle: acetone 100 % of control

CC12OC3(C)C4C(O)C1C1(C)OC4(C)C3C(O)C21 (stereo not drawn)
inactive: [10] 96 % of control | [11] 102 % of control | [12] 98 % of control

COC(=O)C1C=C2c3cccc4[nH]cc(c34)CC2N(C)C1 (stereo not drawn)
inactive: [13] 97 % of control | [14] 97 % of control | [15] 109 % of control

C=C(C)CSc1ccccc1
inactive: endpoint: mean survival time, dose: 5.0 mg/kg/injection, schedule: Q01DX001 (ip), vehicle: saline 97 % of control | endpoint: mean survival time, dose: 10.0 mg/kg/injection, schedule: Q01DX001 (ip), vehicle: saline 97 % of control | endpoint: mean survival time, dose: 20.0 mg/kg/injection, schedule: Q01DX001 (ip), vehicle: saline 97 % of control | endpoint: mean survival time, dose: 40.0 mg/kg/injection, schedule: Q01DX001 (ip), vehicle: saline 97 % of control | endpoint: mean survival time, dose: 80.0 mg/kg/injection, schedule: Q01DX001 (ip), vehicle: saline 97 % of control | [16] 95 % of control | [17] 103 % of control

Cc1ccc(NC(=O)Nc2cccc(CNC(=O)COc3ccc(Cl)cc3C(=O)O)c2)cc1S(=O)(=O)F
inactive: [18] 102 % of control | [19] 96 % of control | [20] 93 % of control | endpoint: mean survival time, dose: 200.0 mg/kg/injection, schedule: Q01DX001 (ip), vehicle: saline with Tween-80 86 % of control | endpoint: mean survival time, dose: 400.0 mg/kg/injection, schedule: Q01DX001 (ip), vehicle: saline with Tween-80 88 % of control

O=C1/C(=C/c2ccccc2)CCCC1/C=C/c1ccccc1 (stereo not drawn)
inactive: [7] 100 % of control | [8] 100 % of control | [9] 97 % of control

CC(C)(C)CC(C)(C)c1ccc(OCCOc2ccc(NS(=O)(=O)c3ccc(N)cc3)cc2)cc1
inactive: endpoint: mean survival time, dose: 100.0 mg/kg/injection, schedule: Q01DX009 (ip), vehicle: Klucel (hydroxypropylcellulose) (HPC) 95 % of control | [7] 97 % of control | endpoint: mean survival time, dose: 200.0 mg/kg/injection, schedule: Q01DX009 (ip), vehicle: Klucel (hydroxypropylcellulose) (HPC) 96 % of control | [8] 97 % of control | endpoint: mean survival time, dose: 400.0 mg/kg/injection, schedule: Q01DX009 (ip), vehicle: Klucel (hydroxypropylcellulose) (HPC) 93 % of control | [9] 95 % of control

CN(C)CCCNCc1c[nH]c(=O)[nH]c1=O
inactive: [10] 90 % of control | [2] 102 % of control | [11] 102 % of control | [4] 100 % of control | [12] 104 % of control | [6] 100 % of control

CC(=O)OC(N=Nc1ccccc1)(c1ccccc1)c1ccccc1
inactive: [7] 98 % of control | [8] 92 % of control | [9] 93 % of control

CC(=O)OCc1c(Cl)ccc(Cl)c1Cl
inactive: [1] 98 % of control | [13] 107 % of control | [3] 100 % of control | [14] 96 % of control | [5] 100 % of control | [15] 96 % of control

COc1ccc(SC2=CC(=O)c3ccccc3C2=O)cc1
inactive: endpoint: mean survival time, dose: 75.0 mg/kg/injection, schedule: Q01DX001 (ip), vehicle: other 97 % of control | endpoint: mean survival time, dose: 150.0 mg/kg/injection, schedule: Q01DX001 (ip), vehicle: other 95 % of control

O=C(Nc1cccc2ccccc12)OCCCBr
inactive: endpoint: mean survival time, dose: 3.13 mg/kg/injection, schedule: Q01DX009 (ip), vehicle: saline with Tween-80 97 % of control | endpoint: mean survival time, dose: 6.25 mg/kg/injection, schedule: Q01DX009 (ip), vehicle: saline with Tween-80 103 % of control | endpoint: mean survival time, dose: 12.5 mg/kg/injection, schedule: Q01DX009 (ip), vehicle: saline with Tween-80 94 % of control and 101 % of control | endpoint: mean survival time, dose: 50.0 mg/kg/injection, schedule: Q01DX009 (ip), vehicle: saline with Tween-80 86 % of control

O=C1NC(=S)NC(=O)C1Cc1ccccc1O
inactive: [16] 100 % of control | [17] 100 % of control | endpoint: mean survival time, dose: 400.0 mg/kg/injection, schedule: Q01DX001 (ip), vehicle: saline 101 % of control

OC1(c2ccccc2)CCN(C/C=C/c2ccccc2)CC1
inactive: [18] 102 % of control | [19] 101 % of control | [20] 102 % of control and 103 % of control

COc1ccc2c(ccc3oc([N+](=O)[O-])cc32)c1
inactive: endpoint: median survival time, dose: 6.25 mg/kg/injection, schedule: Q01DX009 (ip), vehicle: saline with Tween-80 105 % of control | endpoint: median survival time, dose: 12.5 mg/kg/injection, schedule: Q01DX009 (ip), vehicle: saline with Tween-80 105 % of control | endpoint: median survival time, dose: 25.0 mg/kg/injection, schedule: Q01DX009 (ip), vehicle: saline with Tween-80 105 % of control | endpoint: median survival time, dose: 50.0 mg/kg/injection, schedule: Q01DX009 (ip), vehicle: saline with Tween-80 105 % of control | endpoint: median survival time, dose: 100.0 mg/kg/injection, schedule: Q01DX009 (ip), vehicle: saline with Tween-80 107 % of control | endpoint: median survival time, dose: 200.0 mg/kg/injection, schedule: Q01DX009 (ip), vehicle: saline with Tween-80 92 % of control
